Data published in ChEMBL document CHEMBL1201862, “PubChem BioAssay data set” (2004).
The source made the active and inactive calls.

Legend:
[1] = blockers of HIV-1 envelope-mediated cell-cell fusion – cherry-pick, dose response (AID 652057); format: functional, cell-based
[2] = blockers of HIV-1 ZM109 envelope-driven cell-cell fusion – HeLa effector, CEM target cells, luciferase, cherry-pick, dose response (AID 652058); format: functional, cell-based;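 further: luciferase signal from HIV-1 Env mediated cell-cell fusion of effector and target cells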
[3] = off-target signal loss in HeLa-CEM21 co-culture – HeLa F-luc CTL cells, cherry-picked, counter-screen for HIV-1 Env fusion inhibitor project, dose response (AID 652040); format: functional, cell-based;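 further: potency for signal decrease marking cytotoxic or nonspecific inhibition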
[4] = HIV-1 AD8 envelope cell-cell fusion blockers – cherry-pick, dose response (AID 652062); format: functional, cell-based;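 further: luciferase signal from cell-cell fusion driven by HIV-1 clade B AD8 Env; potency is for inhibitors of fusion seen as a drop in luminescence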
BJ [5] = experiment: BJ-TERT fibroblast viability loss – cell-based, RAS-independent, luminescence, dose response (AID 1933); format: functional; settings: Homo sapiens
BJ [6] = experiment: cells; format: functional, cell-based; settings: Homo sapiens
BJ [7] = experiment: BJ-TERT-LT-ST fibroblast viability loss – cell-based, RAS-independent, luminescence, dose response (AID 1935); format: functional; settings: Homo sapiens;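 further: BJ fibroblasts immortalized with TERT plus LT and ST oncogenes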
[8] = DRD fibroblast viability loss – cell-based, non-viral oncogenic, luminescence, dose response (AID 1934); format: functional; settings: Homo sapiens
[9] = HEK-293T viability loss after treatment – luminescence, T-cell screen hits, cytotoxicity control for TCR NF-kB inhibitor project, dose response (AID 489026); format: functional, cell-based;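 further: cells exposed to compound about 14 hours before the viability readout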
[10] = Luminescence Cell-Based Dose Confirmation HTS to Identify Activators of 5'UTR Stem-Loop Driven Alpha-Synuclein mRNA Translation in H4 Neuroglioblastoma Cells. [Related pubchem assays: 1829 (Project Summary), 1814 (Primary HTS)]; format: functional
[11] = Luminescence Cell-Based Dose Response HTS to Identify Activators of Luciferase Translation or Activity in H4 […] Cells. [Related pubchem assays: 1829 (Project Summary), 1814 (Primary HTS)]; format: functional
H4 = experiment: Luminescence Cell-Based Dose Response HTS to Identify Activators of 5'UTR Stem-Loop Driven Prion Protein mRNA Translation in H4 Neuroglioblastoma Cells. [Related pubchem assays: 1829 (Project Summary), 1814 (Primary HTS)]; format: functional; settings: Homo sapiens
[12] = Trypanosoma cruzi growth suppression in host cells – NIH3T3 host cells, beta-gal luminescence, confirmation (AID 2044); format: functional, cell-based;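 further: intracellular parasites grown in NIH/3T3 mouse fibroblasts as host cells; luminescent beta-galactosidase reporter signal from transgenic T. cruzi replicating inside host cells; inhibitors lower the luminescence signal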
[13] = NIH3T3 cell viability loss – ATP luminescence, mouse fibroblasts, counter-screen, dose response (AID 2010); format: functional, cell-based;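 further: cells exposed to compound for about 90 hours before reading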
[14] = THP-1 cell cytotoxicity, dose response, cytotoxicity control for non-replicating M. tuberculosis project (AID 489025); format: functional
[15] = biological target: Glucose-6-phosphate 1-dehydrogenase (Homo sapiens, UniProt P11413); experiment: inhibition of Homo sapiens G6PD, dose series – biochemical, fluorescence, selectivity assay for P. falciparum G6PD inhibitor project, dose response (AID 504792); format: functional
[16] = P. falciparum Dd2 growth inhibitors, dose response, SYBR Green, cherry-picked samples (AID 1159567); format: functional, cell-based
[17] = biological target: T1, Replicative DNA helicase DnaB (Mycobacterium tuberculosis, UniProt P9WMR3); experiment: DnaB intein splicing inhibitors, dose response, biochemical, cell-free fluorescence (AID 449749); format: functional
T1 sequence (P9WMR3 whole entry): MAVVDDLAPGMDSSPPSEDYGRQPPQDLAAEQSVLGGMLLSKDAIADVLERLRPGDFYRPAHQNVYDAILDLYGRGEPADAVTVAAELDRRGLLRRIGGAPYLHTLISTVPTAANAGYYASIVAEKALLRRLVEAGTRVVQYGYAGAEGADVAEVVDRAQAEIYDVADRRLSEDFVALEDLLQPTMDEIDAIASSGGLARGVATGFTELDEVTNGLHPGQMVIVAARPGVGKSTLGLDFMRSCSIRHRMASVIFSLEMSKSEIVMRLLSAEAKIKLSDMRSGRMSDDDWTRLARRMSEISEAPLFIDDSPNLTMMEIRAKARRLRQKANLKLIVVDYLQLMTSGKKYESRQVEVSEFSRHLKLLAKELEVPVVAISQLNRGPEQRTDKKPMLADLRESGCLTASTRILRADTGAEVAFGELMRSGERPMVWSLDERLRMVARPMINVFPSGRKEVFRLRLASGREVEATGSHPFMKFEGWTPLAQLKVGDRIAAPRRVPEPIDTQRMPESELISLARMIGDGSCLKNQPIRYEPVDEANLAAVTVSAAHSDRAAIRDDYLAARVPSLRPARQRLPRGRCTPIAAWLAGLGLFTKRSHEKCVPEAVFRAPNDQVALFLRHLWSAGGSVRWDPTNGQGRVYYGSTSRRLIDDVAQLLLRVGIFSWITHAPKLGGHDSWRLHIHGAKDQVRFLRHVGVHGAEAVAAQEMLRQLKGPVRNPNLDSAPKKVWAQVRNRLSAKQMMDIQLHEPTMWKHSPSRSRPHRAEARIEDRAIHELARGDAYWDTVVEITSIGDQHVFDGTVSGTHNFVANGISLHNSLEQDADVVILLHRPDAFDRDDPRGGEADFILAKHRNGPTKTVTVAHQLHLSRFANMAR

Protein RecA = biological target: T2, Protein RecA (Mycobacterium tuberculosis, UniProt P9WHJ3); experiment: Fluorescence Cell-Free Homogeneous Dose Retest to Identify Inhibitors of RecA-Intein Splicing Activity. [Related pubchem assays (depositor defined):AID2097, AID2223, AID489010, AID492950]; format: functional
T2 sequence (P9WHJ3 whole entry): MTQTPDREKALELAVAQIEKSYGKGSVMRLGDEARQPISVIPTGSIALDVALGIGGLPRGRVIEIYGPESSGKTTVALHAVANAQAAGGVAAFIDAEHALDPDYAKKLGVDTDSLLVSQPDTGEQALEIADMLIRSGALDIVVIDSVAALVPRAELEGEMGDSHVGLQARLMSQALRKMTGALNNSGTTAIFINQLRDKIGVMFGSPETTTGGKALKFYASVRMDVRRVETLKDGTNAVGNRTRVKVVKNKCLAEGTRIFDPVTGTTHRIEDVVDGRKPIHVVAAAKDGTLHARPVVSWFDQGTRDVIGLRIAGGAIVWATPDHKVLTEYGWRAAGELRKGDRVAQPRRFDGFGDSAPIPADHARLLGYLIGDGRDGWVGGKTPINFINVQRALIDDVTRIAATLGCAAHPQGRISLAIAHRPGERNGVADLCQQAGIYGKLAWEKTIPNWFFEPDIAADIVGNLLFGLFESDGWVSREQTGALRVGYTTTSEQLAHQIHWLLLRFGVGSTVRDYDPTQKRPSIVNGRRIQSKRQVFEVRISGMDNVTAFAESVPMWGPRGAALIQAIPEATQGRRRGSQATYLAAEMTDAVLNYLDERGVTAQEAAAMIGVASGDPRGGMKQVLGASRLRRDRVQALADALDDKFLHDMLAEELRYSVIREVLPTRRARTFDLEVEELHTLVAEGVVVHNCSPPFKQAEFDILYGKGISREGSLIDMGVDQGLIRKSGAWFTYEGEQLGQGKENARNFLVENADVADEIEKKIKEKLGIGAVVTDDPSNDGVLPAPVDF

cells [18] = format: functional
cells [19] = format: functional, cell-based
[20] = biological target: T3, Nuclear receptor subfamily 0 group B member 1 (Homo sapiens, UniProt P51843); format: functional, cell-based;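 further: HEK293T cells transfected with SF-1 and DAX-1 plus StAR promoter luciferase reporter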
T3 sequence (P51843 whole entry): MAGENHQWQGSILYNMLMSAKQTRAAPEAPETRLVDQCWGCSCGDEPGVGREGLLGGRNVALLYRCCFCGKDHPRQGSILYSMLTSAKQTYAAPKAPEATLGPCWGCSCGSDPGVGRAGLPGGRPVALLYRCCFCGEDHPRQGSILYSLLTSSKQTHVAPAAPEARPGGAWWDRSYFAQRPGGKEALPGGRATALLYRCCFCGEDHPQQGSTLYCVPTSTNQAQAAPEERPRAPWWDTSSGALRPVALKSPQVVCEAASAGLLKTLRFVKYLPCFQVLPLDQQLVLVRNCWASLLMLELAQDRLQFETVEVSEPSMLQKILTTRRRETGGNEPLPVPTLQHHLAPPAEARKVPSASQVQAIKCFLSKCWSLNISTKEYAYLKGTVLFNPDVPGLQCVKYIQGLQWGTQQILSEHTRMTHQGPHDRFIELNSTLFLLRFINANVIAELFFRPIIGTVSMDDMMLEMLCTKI

[21] = luciferase reporter signal suppression in cells – H4 neuroglioma cells, luminescence, dose response (AID 1990); format: functional, cell-based
[22] = Luminescence Cell-Based Dose Response HTS to Identify Inhibitors of 5'UTR Stem-Loop Driven Prion Protein mRNA Translation in H4 Neuroglioblastoma Cells. [Related pubchem assays: 1827 (Project Summary), 1813 (Primary HTS)]; format: functional
[23] = alpha-synuclein stem-loop luciferase translation blockers – H4 neuroglioma cells, luminescence, confirmation (AID 1988); format: functional, cell-based
[24] = biological target: T4, Calpain-2 catalytic subunit (Sus scrofa, UniProt P43367); experiment: m-calpain protease blockers, concentration series – biochemical, fluorogenic peptide substrate, dose response (AID 1420); format: functional
T4 sequence (P43367 whole entry): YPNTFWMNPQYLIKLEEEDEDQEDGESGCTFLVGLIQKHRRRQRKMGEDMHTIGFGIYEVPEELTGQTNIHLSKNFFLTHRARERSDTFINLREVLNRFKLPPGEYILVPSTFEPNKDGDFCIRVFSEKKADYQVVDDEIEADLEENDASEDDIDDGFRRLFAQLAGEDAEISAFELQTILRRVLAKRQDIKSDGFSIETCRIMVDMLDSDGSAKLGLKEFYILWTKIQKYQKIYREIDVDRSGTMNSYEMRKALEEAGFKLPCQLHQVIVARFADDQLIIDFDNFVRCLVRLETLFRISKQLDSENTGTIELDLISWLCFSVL

Chain of Glucose-6-phosphate 1-dehydrogenase (P11413 whole entry): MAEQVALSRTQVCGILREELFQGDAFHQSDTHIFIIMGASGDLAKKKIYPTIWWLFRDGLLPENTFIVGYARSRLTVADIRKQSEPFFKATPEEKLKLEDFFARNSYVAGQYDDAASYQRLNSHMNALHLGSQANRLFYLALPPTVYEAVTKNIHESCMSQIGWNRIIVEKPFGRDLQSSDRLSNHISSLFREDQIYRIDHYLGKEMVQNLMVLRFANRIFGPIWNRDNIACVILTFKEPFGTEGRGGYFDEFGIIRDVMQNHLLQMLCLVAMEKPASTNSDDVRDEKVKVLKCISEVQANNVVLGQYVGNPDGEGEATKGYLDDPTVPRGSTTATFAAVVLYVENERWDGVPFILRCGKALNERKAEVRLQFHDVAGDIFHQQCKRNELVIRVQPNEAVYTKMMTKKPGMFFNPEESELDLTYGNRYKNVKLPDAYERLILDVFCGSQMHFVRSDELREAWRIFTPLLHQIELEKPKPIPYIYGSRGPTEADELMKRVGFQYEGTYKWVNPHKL

SMILES: CC[C@]1(C(=O)OC)[C@H]2C(=O)N(Cc3ccccc3)C(=O)[C@H]2[C@H]2CN=C(SCC3CC3)N21
- AC50 [1]: 1.12 µM (active)
- AC50 [2]: 1.45 µM (active)
- AC50 [3]: 2.66 µM (active)
- AC50 [4]: 5.46 µM (active)

SMILES: Cc1ccc2c(c1)C=CC(C#N)N2C(=O)c1ccccc1 (configuration not stated)
- EC50 (BJ [5]): 3.69 µM (active)
- EC50 (BJ [6]): > 150 µM (not active)
- EC50 (BJ [7]): 25.5 µM (inconclusive)
- EC50 [8]: 1.54 µM (active)
- IC50 [9]: > 80 µM (inactive)

SMILES: CCCCCOc1ccc(CSC2=NCCN2)cc1[N+](=O)[O-]
- EC50 [10]: 14.1 µM (active)
- EC50 [11]: > 120 µM (not active)
- EC50 (H4): 22.2 µM (active)
- EC50 [12]: 0.534 µM (active)
- EC50 [13]: > 60 µM (not active)
- CC50 [14]: > 40 µM (active)

SMILES: CC[C@@]12C(=O)N(c3ccccc3)C(=O)N1[C@H](c1cccc(C)c1)[C@@H]1C(=O)N(Cc3ccccc3)C(=O)[C@@H]12
- AC50 [1]: 3.83 µM (active)
- AC50 [2]: 3.8 µM (active)
- AC50 [3]: 4.02 µM (active)
- AC50 [4]: 5.26 µM (active)

SMILES: C/C(Cn1nnc([N+](=O)[O-])n1)=N\NC(=O)c1ccccc1
- EC50 [10]: > 120 µM (not active)
- EC50 [11]: > 120 µM (not active)
- EC50 (H4): > 120 µM (not active)
- IC50 [15]: > 80 µM (inactive)

SMILES: CCn1c(SCC(=O)Nc2ccccc2OC)nnc1-c1cnccn1
- IC50 [15]: > 80 µM (inactive)

SMILES: CCC(=O)N1CCC2(CC1)CN(Cc1cccc(Cl)c1)[C@H](CO)c1c2c2ccc(OC)cc2n1C
- AC50 [16]: 4.8 µM (active)

SMILES: CCOc1ccccc1CNc1ccc(O)cc1
- IC50 [15]: > 80 µM (inactive)
- AC50 [17]: > 380 µM (inactive)
- EC50 (Protein RecA): 14 µM (active)

SMILES: COc1ccc(C#Cc2ccc3c(c2)[C@H]2[C@H](CCN2C(=O)C2CCC2)[C@H](CO)N3)cc1
- AC50 [16]: 3.3 µM (active)

SMILES: CC(NC(=O)c1cc2cc(Br)ccc2oc1=N)c1ccccc1 (configuration not stated)
- CC50 [14]: 24.6 µM (active)
- IC50 (cells [18]): 33.6 µM (active)

SMILES: Cc1ccc(/C=C/C(=O)NCCc2cccc(Cl)c2)o1
- IC50 [15]: > 80 µM (inactive)

SMILES: CC(=O)C1=C(C)N(Cc2ccc(Cl)cc2)C(=S)NC1c1cccc(Br)c1 (configuration not stated)
- AC50 [1]: 5.96 µM (active)
- AC50 [2]: 4.16 µM (active)
- AC50 [3]: 15.9 µM (active)
- AC50 [4]: 22.6 µM (active)

SMILES: Cc1cc(C)nc(SC2CC(=O)N(c3ccc(C)c(C)c3)C2=O)n1 (configuration not stated)
- CC50 [14]: > 40 µM (active)

SMILES: COc1ccc(NC(=O)c2cnc(SC)nc2)cc1
- EC50 [10]: > 120 µM (not active)
- EC50 [11]: 14.8 µM (active)
- EC50 (H4): 16 µM (active)
- CC50 [14]: 18.1 µM (active)
- IC50 (cells [18]): 18.4 µM (active)

SMILES: CN1C(=O)CSc2ccc(NC(=O)N3CCc4ccccc43)cc21
- IC50 [15]: > 80 µM (inactive)
- IC50 (cells [19]): > 67.5 µM (inactive)
- IC50 [20]: > 67.5 µM (inactive)

SMILES: Cc1ccc(CSc2nc3ccccc3cc2C=O)cc1
- EC50 [21]: > 120 µM (not active)
- EC50 (BJ [5]): 0.689 µM (active)
- EC50 [22]: 11.9 µM (active)
- EC50 [23]: 9.33 µM (active)
- EC50 (BJ [6]): 1.87 µM (active)
- EC50 (BJ [7]): 0.668 µM (active)
- EC50 [8]: 1.59 µM (active)

SMILES: Cc1cc(NC(=O)CCC(=O)N(C2CC2)C2(C(=O)NC3CCCC3)CCC(C)CC2)no1 (configuration not stated)
- AC50 [1]: 5.4 µM (active)
- AC50 [2]: 3.3 µM (active)
- AC50 [3]: 6.16 µM (active)
- AC50 [4]: 13.4 µM (active)

SMILES: Cc1nc2ccccc2[nH]c(=O)c1=NNc1ccc([N+](=O)[O-])cc1
- IC50 [24]: 12.3 µM (not active)
